# According to publication PMC7797213, “Vascular effects of serelaxin in patients with stable coronary artery disease: a randomized placebo-controlled trial” (Cardiovascular Research, 2020):
# Legend:
# [1] = system: patients with stable coronary artery disease; assay: Adenosine stress perfusion CMR: myocardial blood flow and myocardial perfusion reserve; type: in vivo, human
# Protocol: (30 μg/kg/day) or matching placebo, using a computerized randomization system involving concealed treatment arms. The co-primary endpoints were the change from baseline in global myocardial perfusion reserve (MPR) measured by quantitative perfusion cardiac magnetic resonance (CMR) imaging and the change from baseline in augmentation index (AIx) measured by applanation tonometry. The primary endpoints of MPR and AIx were assessed at baseline and 47 h post-commencement of the infusion (Figure 1).
# A standardized CMR protocol was acquired on 1.5 T (Siemens Avanto) or 3.0 T (Siemens Skyra and Verio) magnetic resonance imaging (MRI) scanners. The CMR protocol included standard localizers, long- and short-axis cine acquisitions, stress and rest first-pass perfusion, and late gadolinium enhancement (LGE) imaging as previously described.[24] For perfusion imaging, a saturation recovery prepared fast gradient echo sequence was used to acquire dynamic contrast-enhanced CMR during adenosine stress (140–280 µg/kg/min for 3 min) and rest, during first-pass of the IV administered contrast agent (Gadovist, 0.05 mmol/kg, 5 mL/s), followed by 20 mL saline injection (5 mL/s). Three short-axis planes through the left ventricle (basal, mid-ventricular, and apical) were obtained.
# CMR image collection, blinding, and handling were managed by an independent imaging contract-research organization (CRO; VirtualScopics, Inc., Rochester, NY, USA). The CMR quantitative analyses were performed by blinded academic readers with >3 years of CMR experience (D.C., A.R., and C.B.). Cine images for ventricular volumes and mass and myocardial perfusion images were manually contoured (QMass, Medis, Leiden, Netherlands). Myocardial blood flow (MBF) was derived from stress and rest perfusion images using a Fermi deconvolution method,[25] implemented in MATLAB.[26] Global MPR was calculated from the ratio of global MBF evaluated at stress and at rest (MPR = stress MBF/rest MBF). Global MBF was calculated by averaging the MBF (mL/g/min) for basal, mid, and apical short-axis left ventricular slices. Ascending and descending aortic strain and distensibility were derived from manually contoured end-diastolic and end-systolic aortic cine images. Aortic strain (AS, unit free fraction) = [maximum aortic lumen area − minimum aortic lumen area]/minimum aortic lumen area. Aortic distensibility (AD, mmHg^−^1) = aortic strain/pulse pressure. Ascending aortic peak flow velocity (m/s) was derived from manually contoured phase-velocity encoding sequence images (QFlow, Medis, Leiden, Netherlands). The presence or absence of myocardial scar was qualitatively assessed on the LGE images.
# [2] = system: patients with stable coronary artery disease; assay: Applanation tonometry carotid-femoral pulse wave velocity (PWV); type: in vivo, human; conditions: for PWV, absolute value: mean ± SD; for PWV, adjusted mean difference serelaxin versus placebo / PWV, change from baseline (adjusted mean): repeated measures ANCOVA
# Protocol: Secondary endpoints included: the change from baseline in AIx and pulse wave velocity (PWV) assessed at the end of treatment, Day 30 and Day 180; aortic distensibility (assessed with CMR and PWV methods) at the end of treatment; pharmacokinetics and safety (adverse events, serious adverse events, and vital signs) of 48 h infusion of serelaxin 30 μg/kg/day. The changes in levels of circulating biomarkers of cardiorenal and vascular function during and after treatment with serelaxin were also assessed as part of the exploratory endpoints.
# The applanation tonometry assessments were performed by blinded operators. Augmentation index [AIx = (augmentation pressure/pulse pressure) × 100], and carotid-femoral PWV were measured by applanation tonometry (Sphygmocor®, AtCor Medical, Australia) at a proximal (carotid artery) and a distal (femoral artery) site of the body, utilizing R-wave gated determination of the time interval between the two measurement points. An averaged carotid pressure waveform (from a 10 s recording) was converted into a corresponding central waveform using a validated transfer function (SphygmoCor®, AtCor, Australia).[27]^,[28]
# [3] = 0 h (pre-dose baseline), mean ± SD, n=22
# [4] = 0 h (pre-dose baseline), mean ± SD, n=24
# [5] = 47 h post dose, mean ± SD, n=23
# [6] = 47 h post dose, mean ± SD, n=24
# [7] = Bayesian, criterion 1: increase between serelaxin and placebo greater than zero
# [8] = Bayesian, criterion 2: increase between serelaxin and placebo greater than 20%
# [9] = baseline to 47 h, 48 h IV infusion 30 µg/kg/day, ANCOVA, n=22
# [10] = baseline to day 3, Bayesian analysis
# [11] = baseline to day 3, Bayesian analysis, non-informative priors, n=22
# [12] = change baseline to 47 h, ANCOVA
substance,measurement,setting,value
Serelaxin,"Apical MBF rest, absolute value",[1]; [3],1.41 ± 0.43 (22) mL/g/min
same,"Apical perfusion reserve index, absolute value",[1]; [3],2.24 ± 0.89 (22)
same,"Basal MBF rest, absolute value",[1]; [3],1.16 ± 0.39 (22) mL/g/min
same,"Basal perfusion reserve index, absolute value",[1]; [3],2.25 ± 0.92 (22)
same,"Global MPR, absolute value",[1]; [3],2.25 ± 0.88 (22)
same,"Mean global MBF rest, absolute value",[1]; [3],1.26 ± 0.37 (22) mL/g/min
same,"Mid MBF rest, absolute value",[1]; [3],1.22 ± 0.37 (22) mL/g/min
same,"Mid perfusion reserve index, absolute value",[1]; [3],2.24 ± 0.98 (22)
same,"Apical MBF stress, absolute value",[1]; [4],2.82 ± 1.00 (24) mL/g/min
same,"Basal MBF stress, absolute value",[1]; [4],2.34 ± 0.90 (24) mL/g/min
same,"Mean global MBF stress, absolute value",[1]; [4],2.54 ± 0.87 (24) mL/g/min
same,"Mid MBF stress, absolute value",[1]; [4],2.45 ± 0.84 (24) mL/g/min
same,"Apical MBF stress, absolute value",[1]; [5],2.66 ± 0.73 (23) mL/g/min
same,"Apical perfusion reserve index, absolute value",[1]; [5],2.01 ± 0.60 (23)
same,"Basal MBF stress, absolute value",[1]; [5],2.14 ± 0.84 (23) mL/g/min
same,"Global MPR, absolute value",[1]; [5],1.98 ± 0.59 (23)
same,"Mean global MBF stress, absolute value",[1]; [5],2.32 ± 0.67 (23) mL/g/min
same,"Mid MBF stress, absolute value",[1]; [5],2.16 ± 0.70 (23) mL/g/min
same,"Mid perfusion reserve index, absolute value",[1]; [5],1.93 ± 0.70 (23)
same,"Apical MBF rest, absolute value",[1]; [6],1.41 ± 0.34 (24) mL/g/min
same,"Basal MBF rest, absolute value",[1]; [6],1.13 ± 0.39 (24) mL/g/min
same,"Mean global MBF rest, absolute value",[1]; [6],1.24 ± 0.32 (24) mL/g/min
same,"Mid MBF rest, absolute value",[1]; [6],1.17 ± 0.31 (24) mL/g/min
same,"Mean global MBF rest, probability of success Pr (Criterion 1|data)",[1]; [7],0.80
same,"Mean global MBF stress, probability of success Pr (Criterion 1|data)",[1]; [7],0.38
same,"Global MPR, probability of success Pr (Criterion 1|data)","[1]; Bayesian, criterion 1: increase in MPRI between serelaxin and placebo greater than zero",0.22
same,"Mean global MBF rest, probability of success Pr (Criterion 2|data)",[1]; [8],0.0014
same,"Mean global MBF stress, probability of success Pr (Criterion 2|data)",[1]; [8],0.0006
same,"Global MPR, probability of success Pr (Criterion 2|data)","[1]; Bayesian, criterion 2: increase in MPRI between serelaxin and placebo greater than 20%",0.0002
same,"Global MPR, change from baseline (adjusted mean)",[1]; [9],-0.24
same,"Mean global MBF rest, change from baseline (adjusted mean)",[1]; [9],0.01 mL/g/min
same,"Mid MBF rest, change from baseline (adjusted mean)","[1]; baseline to 47 h, ANCOVA, n=22",-0.01 mL/g/min
same,"Mid perfusion reserve index, change from baseline (adjusted mean)","[1]; baseline to 47 h, ANCOVA, n=22",-0.26
same,"Mid MBF stress, change from baseline (adjusted mean)","[1]; baseline to 47 h, ANCOVA, n=23",-0.27 mL/g/min
same,"Mean global MBF stress, change from baseline (adjusted mean)","[1]; baseline to 47 h, adenosine stress, 48 h IV infusion 30 µg/kg/day, ANCOVA, n=23",-0.22 mL/g/min
same,"Global MPR, estimate of difference (serelaxin vs placebo), posterior median",[1]; [10],-0.11
same,"Mean global MBF rest, estimate of difference (serelaxin vs placebo), posterior median",[1]; [10],0.05 mL/g/min
same,"Mean global MBF stress, estimate of difference (serelaxin vs placebo), posterior median",[1]; [10],-0.05 mL/g/min
same,"Global MPR, change from baseline, within treatment posterior median",[1]; [11],-0.25
same,"Mean global MBF rest, change from baseline, within treatment posterior median",[1]; [11],0.01 mL/g/min
same,"Mean global MBF stress, change from baseline, within treatment posterior median","[1]; baseline to day 3, Bayesian analysis, non-informative priors, n=23",-0.22 mL/g/min
same,"Mean global MBF rest, adjusted mean difference serelaxin versus placebo","[1]; change baseline to 47 h, 48 h IV infusion 30 µg/kg/day, ANCOVA",0.05 mL/g/min
same,"Global MPR, adjusted mean difference serelaxin versus placebo",[1]; [12],-0.11
same,"Mid MBF rest, adjusted mean difference serelaxin versus placebo",[1]; [12],0.06 mL/g/min
same,"Mid MBF stress, adjusted mean difference serelaxin versus placebo",[1]; [12],-0.11 mL/g/min
same,"Mid perfusion reserve index, adjusted mean difference serelaxin versus placebo",[1]; [12],-0.19
same,"Mean global MBF stress, adjusted mean difference serelaxin versus placebo","[1]; change baseline to 47 h, adenosine stress, ANCOVA",-0.05 mL/g/min
same,"PWV, absolute value","[2]; 0 h (pre-dose baseline), n=22",7.45 ± 2.05 (22) meters/second
same,"PWV, adjusted mean difference serelaxin versus placebo",[2]; 24 h,-0.157 meters/second
same,"PWV, adjusted mean difference serelaxin versus placebo","[2]; 24 h, listed as serelaxin",−0.16 meters/second
same,"PWV, change from baseline (adjusted mean)","[2]; 24 h, n=19",-0.54 meters/second
same,"PWV, absolute value","[2]; 24 h post-dose, n=19",7.05 ± 1.88 (19) meters/second
same,"PWV, adjusted mean difference serelaxin versus placebo",[2]; 47 h,-0.34 meters/second
same,"PWV, change from baseline (adjusted mean)","[2]; 47 h, n=21",-0.26 meters/second
same,"PWV, absolute value","[2]; 47 h post-dose, n=22",7.20 ± 1.92 (22) meters/second
same,"PWV, absolute value","[2]; Day 30, n=23",7.99 ± 1.82 (23) meters/second
same,"PWV, adjusted mean difference serelaxin versus placebo",[2]; Day 30,-0.06 meters/second
same,"PWV, adjusted mean difference serelaxin versus placebo","[2]; Day 30, listed as serelaxin",−0.06 meters/second
same,"PWV, change from baseline (adjusted mean)","[2]; Day 30, n=20",0.35 meters/second
same,"PWV, absolute value","[2]; Day 180, n=23",8.34 ± 2.11 (23) meters/second
same,"PWV, adjusted mean difference serelaxin versus placebo",[2]; Day 180,0.12 meters/second
same,"PWV, change from baseline (adjusted mean)","[2]; Day 180, n=20",0.93 meters/second
